# B1: Flt3-ligand: recombinant cytokine of the culture medium (100 ng/ml) (protein, UniProt P49771 27-235, looked up)
# Fms-related tyrosine kinase 3 …: TQDCSFQHSPISSDFAVKIRELSDYLLQDYPVTVASNLQDEELCGGLWRLVLAQRWMERLKTVAGSKMQGLLERVNTEIHFVTKCAFQPPPSCLRFVQTNISRLLQETSEQLVALKPWITRQNFSRCLELQCQPDSSTLPPPWSPRPLEATAPTAPQPPLLLLLLLPVGLLLLAAAWCLHWQRTRRRTPRPGEQVPPVPSPQDLLLVEH
# Assays:
# DNA-PK = biological target: T1, DNA-PK (Mus musculus, UniProt P97313); assay: γH2AX foci resolution in LSK-CD34− cultures with DNA-PK inhibitor; type: cell-based, mice; conditions: 10 μm NU7441 in TPO-containing cultures of LSK-CD34− cells, IR 2 Gy, 24 h
# T1 construct: LSK and LSK-CD34^− cells were sorted using ARIAS cell sorter; endogenous in cells; host or cells: primary mouse bone-marrow LSK-CD34- cells
# Description: (§1) Mpl^−/− backcrossed on C57BL/6 (CD45.2) background (kindly provided by Dr F. de Sauvage) were described previously (Petit-Cocault et al., 2007). C57BL/6J (CD45.2 and CD45.1) and CB17-Prkdc-scid mice were purchased from Charles River and Harlan laboratories, respectively. Unless otherwise specified, mice of 8-10 weeks of age were used. Lin^− progenitors were isolated from BM and stained as described (Saulnier et al., 2012). LSK and LSK-CD34^− cells were sorted using ARIAS cell sorter (BD Franklin Lakes, N.J., USA) and cultured in StemSpan SFEM (StemCell Technologies) supplemented with recombinant Flt3-Ligand (100 ng/ml), interleukin-3 (IL-3, 10 ng/ml), interleukin-6 (IL-6, 10 ng/ml), Stem cell factor (SCF, 100 ng/ml), and with or without 50 ng/ml TPO (complete medium), all from Peprotech (Rocky Hill, N.J., USA). […] For competitive reconstitution experiments, 3000 LSKs sorted from C57BL/6 CD45.1 mice subjected or not to TBI (2 Gy) and TPO injection (8 μg/kg body weight), were injected in lethally irradiated (10 Gy) C57BL/6 CD45.2 congenic mice, together with 3×10^5 BM CD45.2 competitor cells and analyzed 4 months later.
# (§2) Immunofluorescence was performed as described (Pawlikowska et al., 2010) with cells cytospun on glass slides. […] Pictures were analyzed using ImageJ software.
# LSKs [1] = assay: γH2AX foci / DNA break disappearance after IR in vitro in cytokine cultures; type: cell-based, mice; conditions: removal of the cytokine from culture medium
# Description: as §1, §2
# LSKs [2] = assay: γH2AX foci in LSKs of mice after TBI or chemotherapeutic drug injection; type: in vivo; conditions: WT mice, vs PBS
# Description: (§3) Mpl^−/− backcrossed on C57BL/6 (CD45.2) background (kindly provided by Dr F. de Sauvage) were described previously (Petit-Cocault et al., 2007). C57BL/6J (CD45.2 and CD45.1) and CB17-Prkdc-scid mice were purchased from Charles River and Harlan laboratories, respectively. Unless otherwise specified, mice of 8-10 weeks of age were used. Lin^− progenitors were isolated from BM and stained as described (Saulnier et al., 2012). LSK and LSK-CD34^− cells were sorted using ARIAS cell sorter (BD Franklin Lakes, N.J., USA) and cultured in StemSpan SFEM (StemCell Technologies) supplemented with recombinant Flt3-Ligand (100 ng/ml), interleukin-3 (IL-3, 10 ng/ml), interleukin-6 (IL-6, 10 ng/ml), Stem cell factor (SCF, 100 ng/ml), and with or without 50 ng/ml TPO (complete medium), all from Peprotech (Rocky Hill, N.J., USA). UT7-Mpl cells (Hamelin et al., 2006) were cultured in α-minimal essential medium (α-MEM) supplemented with 10% FCS and 2 U/ml erythropoietin (EPO, Boehringer Ingelheim). Cell IR in vitro were carried-out in a Biobeam 8000 irradiator (Gamma Service Medical GmbH, Leipzig, Germany). Mice TBI were performed in cesium irradiator IBL 637 (Curie Institute, Paris). Etoposide and doxorubicine were purchased from sigma (Saint-Louis, Mo., USA), drugs were injected intraperitoneally at the indicated doses. For competitive reconstitution experiments, 3000 LSKs sorted from C57BL/6 CD45.1 mice subjected or not to TBI (2 Gy) and TPO injection (8 μg/kg body weight), were injected in lethally irradiated (10 Gy) C57BL/6 CD45.2 congenic mice, together with 3×10^5 BM CD45.2 competitor cells and analyzed 4 months later.
# (§4) Immunofluorescence was performed as described (Pawlikowska et al., 2010) with cells cytospun on glass slides. Slides were visualized with Leica DMI 6000 (Wetzlar, Germany) microscope equipped with a 63×1.6 oil-immersion objective and a coupled device camera MicroMAX (Princeton Instruments Trenton, N.J., USA). Pictures were analyzed using ImageJ software.
# LSKs from SCID mice = assay: γH2AX foci in LSKs from SCID mice after TBI; type: in vivo; conditions: SCID mice (DNA-PKcs mutation), TPO 8 μg/kg, TBI 2 Gy, 16 h
# Description: as §1, §2
# LSK and LSK-CD34^− cells [3] = assay: LSK and LSK-CD34− proportions, cell cycle status and cell cycle regulators 5 h after TBI; type: in vivo, mice
# Description: as §3
# LSK and LSK-CD34^− cells [4] = assay: Persistent DNA damage (γH2AX) in LSK and LSK-CD34− cells 3 months after TBI; type: in vivo, mice; conditions: TPO prior to TBI, analyzed 3 months later
# Description: as §1, §2
# Lin^− progenitors = assay: Chromosomal aberrations in metaphases from Lin− progenitors after TBI in vivo; parameters: species or system mice
# Experimental: Fluorescence was analyzed with a Zeiss Axioplan epifluorescent microscope and ISIS/M-FISH imaging system (MetaSystems).
# LSKs [5] = assay: Competitive reconstitution with LSKs from irradiated donor mice; type: in vivo
# Description: as §1, with “USA). UT7-Mpl cells (Hamelin et al., 2006) were cultured in α-minimal essential medium (α-MEM) supplemented with 10% FCS and 2 U/ml erythropoietin (EPO, Boehringer Ingelheim).” for “USA).”
# WT HSPCs = assay: Chromosomal rearrangements in HSPCs irradiated in vitro; type: cell-based, mice; conditions: WT HSPCs irradiated in vitro (2 Gy), cultured in the absence of TPO
# Description: as §1
# Chromosomal aberration analysis in metaphase spreads were performed as described previously (Pawlikowska et al., 2010). […] Fluorescence was analyzed with a Zeiss Axioplan epifluorescent microscope and ISIS/M-FISH imaging system (MetaSystems).
# UT7-Mpl cells = assay: DNA damage and p-DNA-PK foci in UT7-Mpl cells after IR; type: cell-based, human
# Description: as §3, §4
# Rad51 foci = assay: Homologous recombination markers: Rad51 foci and repair of replicative-stress DSBs; type: cell-based
# [6] = in the absence of TPO, compared to TPO-treated cells, IR 2 Gy
molecule,measurement,setting,value
O=c1cc(N2CCOCC2)oc2c(-c3cccc4c3sc3ccccc34)cccc12 [NU7441],TPO-improved γH2AX foci resolution,DNA-PK,completely abolished
"Stem cell factor [SCF, reference compound]",kinetics of IR-induced γH2AX foci or DNA break disappearance,LSKs [1],did not impair
Thrombopoietin [TPO],number of LSKs displaying γH2AX foci,"LSKs [2]; TPO 8 μg/kg injected just before 2 Gy TBI, at 5 h",reduced significantly
same,number of LSKs displaying γH2AX foci,"LSKs [2]; TPO injected just before doxorubicine (3 or 10 mg/kg), at 24 h",reduced significantly
same,number of LSKs displaying γH2AX foci,"LSKs [2]; TPO injected just before etoposide (4 mg/kg), at 24 h",reduced significantly
same,TBI-induced LSK γH2AX foci formation,LSKs from SCID mice,did not decrease
same,proportions of LSK and LSK-CD34− cells recovered from BM,"LSK and LSK-CD34^− cells [3]; 5 h after TBI, PBS vs TPO-treated mice",not significantly different
same,cell cycle status of LSK or LSK-CD34− cells,"LSK and LSK-CD34^− cells [3]; TPO treatment pre-TBI, compared to PBS",did not alter
same,expression of cell cycle regulators p57kip2 and p27Kip1,LSK and LSK-CD34^− cells [3]; after TPO injection and TBI,remained unchanged
same,number and cycle of HSCs and HSPCs,LSK and LSK-CD34^− cells [4],no effect
same,persistent DNA damage (γH2AX foci) in HSCs and HSPCs,LSK and LSK-CD34^− cells [4],almost completely abolished
same,chromosomal aberrations in metaphases from progenitor cells,"Lin^− progenitors; 3 months from TBI, TPO-injected mice",greatly reduced
same,genomic instability (genomic rearrangements) transmitted to progenitor progeny of LSKs,"Lin^− progenitors; 4 months after reconstitution of lethally irradiated recipients, TPO injection before TBI",significantly reduced
same,increase in donor CD45.1 chimerism in the peripheral blood and in BM LSK cells,"LSKs [5]; 4 months after transplantation, TPO vs PBS before TBI",3- to 5 fold
same,"donor chimerism, difference between the TPO and PBS groups",LSKs [5]; 6 weeks posttransplantation,No difference
same,chromosomal rearrangements,WT HSPCs,high numbers
same,TPO action on IR-induced DNA damage in human cell line,UT7-Mpl cells; UT7-Mpl grown with EPO or TPO,could also act
same,number of UT7-Mpl cells showing IR-induced pSer2056- and pT2609-DNA-PK foci,UT7-Mpl cells; [6],significantly decreased
same,p-DNA-PK foci number in positively stained cells,UT7-Mpl cells; [6],greatly reduced
same,total DNA-PK signal,UT7-Mpl cells; upon IR or TPO treatment,did not change
same,repair of DSBs induced by replicative stresses,Rad51 foci; camptotecin and hydroxyurea,could not improve
same,IR-induced Rad51 foci formation,Rad51 foci; functional marker of HR,did not increase
B1,kinetics of IR-induced γH2AX foci or DNA break disappearance,LSKs [1],did not impair
